Assay results published in PMC9641905, “Synthesis, biological evaluation and molecular docking of new triphenylamine-linked pyridine, thiazole and pyrazole analogues as anticancer agents” (BMC Chemistry, 2022).

How the values were obtained:
[1] = tested on: A-549 cell line; test: MTT cytotoxicity assay, A-549 lung cancer cell line; assay type: cell-based, human; conditions: lung cancer cells
Method: (§1) The lung cancer A-549 and the breast cancer MDA-MB-231 cell lines were obtained from the viscera Tissue Culture Unit. The cells were spread in Dulbecco’s modified Eagle’s medium (DMEM) supplemented with 10% heat-inactivated fetal bovine serum, 1% L-glutamine, HEPES buffer, and 50 µg/mL gentamycin. All cells were maintained at 37 °C in a humidified atmosphere with 5% CO2 and were sub-cultured two times a week.
(§2) The MTT assay was applied to determine the cytotoxicity of pyridine and thiazole derivatives. MTT or 3-(4,5-dimethylthiazol-2-yl)-2,5-diphenyltetrazolium bromide was purchased from Serva, Germany. The cell lines were introduced into 96-well plates at a cell concentration of 1 × 10^4 cells per well in 100 μL of complete medium (tests were done in duplicates). These plates were incubated for 24 h, 5% CO2, at 37 °C for settle down and adhesion. Control cells were incubated without the test sample and with or without DMSO. After incubation, different concentrations of samples were added after the period of incubation (48 h), media were inhaled, and the MTT solution was added to all wells for full 30 min. Briefly, the media was extracted from the 96 well plates and exchanged with 100 µl of fresh culture RPMI 1640 medium without phenol red then 10 µl of the 12 mM MTT stock solution (5 mg of MTT in 1 mL of PBS) to all wells inclusive the untreated controls. The 96 well plates were incubated at 37 °C and 5% CO2 for 4 h. An 85 µl aliquot of the media was taken away from the wells, added 50 µl of DMSO to all wells and mixed thoroughly, and incubated at 37 °C for 10 min. The absorbance of plates was measured after shaking on a microplate reader (TECAN, Inc.), using a test wavelength of 590 nm. Measure the optical density by the microplate reader to calculate the number of viable cells and the percentage of viability according to [(ODt/ODc)] × 100% where ODt (optical density of cells treated) with the tested sample and ODc (optical density of control cells).
(§3) In the vitro cytotoxic activity of triphenylamine-based pyridine, thiazole, pyrazole and/or isoxazole derivatives was estimated against two cell lines as lung cancer (A-549) and mammary gland breast cancer cell line (MDA-MB-231) by using MTT assay according to reported method. Cisplatin is one of the common alkylation agents was selected to be the reference drug. From graphic plots of the dose response curve determine the 50% inhibitory concentration (IC50) (Fig. 2).

[2] = tested on: MDA-MB-231 cell line; test: MTT cytotoxicity assay, MDA-MB-231 breast cancer cell line; assay type: cell-based, human; conditions: breast cancer cells
Method: as §1, §2, §3

[3] = tested on: human lung fibroblast noncancerous cell line (MRC-5); test: MTT cytotoxicity assay against normal cells (MRC-5); assay type: cell-based; conditions: normal human lung fibroblasts
Method: as §2
(§4) The MTT assay was applied to determine the cytotoxicity of pyridine and thiazole derivatives against normal cell line to explore the selectivity of the tested compounds against tumor cells. The cytotoxicity was tested against human lung fibroblast noncancerous cell line (MRC-5).

[4] = as above; assay type: cell-based; conditions: MRC-5 cells (normal lung fibroblasts), normal human lung fibroblasts, read-out: CC50 MRC-5 cell line
Method: as §2, §4

Molecule	IC50 ([1]; 48 h) [nM]	IC50 ([2]; 48 h) [nM]	CC50 [3] [nM]	IC50 ([1]; Homo sapiens, A549, 48 h) [nM]	IC50 ([2]; Homo sapiens, MDA-MB-231, 48 h) [nM]	CC50 at 48 h [4] [nM]	melting point [°C]
6-Amino-1-(p-anisyl)-4-(4-(diphenylamino)phenyl)-2-oxo-1,2-dihydropyridine-3,5-dicarbonitrile [4c]	154	193	864				
N#Cc1c(-c2ccc(N(c3ccccc3)c3ccccc3)cc2)c(C#N)c(=O)n(-c2ccccc2)c1N [4a, 6-Amino-4-(4-(diphenylamino)phenyl)-2-oxo-1-phenyl-1,2-dihydropyridine-3,5-dicarbonitrile]				46.9	55	137	
Cc1ccc(-n2c(N)c(C#N)c(-c3ccc(N(c4ccccc4)c4ccccc4)cc3)c(C#N)c2=O)cc1 [4b, 6-Amino-4-(4-(diphenylamino)phenyl)-2-oxo-1-(p-tolyl)-1,2-dihydropyridine-3,5-dicarbonitrile]				8.03	10.3	97.1	
CN(C)c1ccc(-n2c(N)c(C#N)c(-c3ccc(N(c4ccccc4)c4ccccc4)cc3)c(C#N)c2=O)cc1 [4d, 6-Amino-1-(4-(dimethylamino)phenyl)-4-(4-(diphenylamino)phenyl)-2-oxo-1,2-dihydropyridine-3,5-dicarbonitrile]				233		1100	
N#Cc1c(-c2ccc(N(c3ccccc3)c3ccccc3)cc2)c(C#N)c(=O)n(-c2ccc([N+](=O)[O-])cc2)c1N [4e, 6-Amino-4-(4-(diphenylamino)phenyl)-1-(4-nitrophenyl)-2-oxo-1,2-dihydropyridine-3,5-dicarbonitrile]				9.5	14.7	82.3	
CCN(CC)c1ccc(NC(=O)C(C#N)=c2sc(=O)c(=Cc3ccc(N(c4ccccc4)c4ccccc4)cc3)n2-c2ccccc2)cc1 [6a, 2-Cyano-N-(4-(diethylamino)phenyl)-2-(4-(4-(diphenylamino)benzylidene)-5-oxo-3-phenylthiazolidin-2-ylidene)acetamide]				141	172	985	
CN(C)c1ccc(NC(=O)C(C#N)=c2sc(=O)c(=Cc3ccc(N(c4ccccc4)c4ccccc4)cc3)n2-c2ccccc2)cc1 [6b, 2-Cyano-N-(4-(dimethylamino)phenyl)-2-(4-(4-(diphenylamino)benzylidene)-5-oxo-3-phenylthiazolidin-2-ylidene)acetamide]				79.2	123	768	
Cc1ccc(NC(=O)C(C#N)=c2sc(=O)c(=Cc3ccc(N(c4ccccc4)c4ccccc4)cc3)n2-c2ccccc2)cc1 [6c, 2-Cyano-2-(4-(4-(diphenylamino)benzylidene)-5-oxo-3-phenylthiazolidin-2-ylidene)-N-(p-tolyl)acetamide]				48.5	51	143	
COc1ccc(NC(=O)C(C#N)=c2sc(=O)c(=Cc3ccc(N(c4ccccc4)c4ccccc4)cc3)n2-c2ccccc2)cc1 [6d, 2-Cyano-2-(4-(4-(diphenylamino)benzylidene)-5-oxo-3-phenylthiazolidin-2-ylidene)-N-(4-methoxyphenyl)acetamide]				95.4	139	683	
N.N.[Cl][Pt][Cl] [Cisplatin, reference compound]	24.4	12					
CCOC(=O)C=c1sc(=Cc2ccc(N(c3ccccc3)c3ccccc3)cc2)c(=O)n1-c1ccccc1 [compound 8, ethyl-2-(5-(4-(diphenylamino)benzylidene)-4-oxo-3-phenylthiazolidin-2-ylidene)acetate]				219	136	1100	250 to 252
CC1=NN(c2ccccc2)C(=O)C1=Cc1ccc(N(c2ccccc2)c2ccccc2)cc1 [compound 9, 4-(4-(Diphenylamino)benzylidene)-5-methyl-2-phenyl-2,4-dihydro-3H-pyrazol-3-one]				127	268	1300	182 to 184
O=C1ON=C(c2ccccc2)C1=Cc1ccc(N(c2ccccc2)c2ccccc2)cc1 [compound 10, 4-(4-(Diphenylamino)benzylidene)-3-phenylisoxazol-5(4H)-one]				128	111	973	218 to 220
